# Target: T1, human full-length recombinant PKC βII (Homo sapiens, UniProt P05771)
# T1 construct: Active human full-length recombinant PKC βII; purchased Invitrogen GmbH, Darmstadt, Germany
# Experiment: Determination of PKC βII inhibition (Caliper mobility-shift kinase assay, phosphorylation of fluorescein peptide substrate)
# Format: biochemical
# Conditions: final compound concentration 1.14 µM (±0.15 µM); 60 min incubation at 32 °C
# Outline: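 Active full-length PKC βII in pH 7.4 Hepes with MgCl2, CaCl2, PS, DAG and Triton X-100; substrate/ATP mix held 3 µM fluorescein peptide and 120 µM ATP before addition. Reaction ran 60 min at 32 °C, stopped with EDTA. Mobility-shift fractional turnover gave % inhibition at 1.14 µM (±0.15 µM) final compound.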
# T1 sequence (P05771 1-673 isoform P05771-2): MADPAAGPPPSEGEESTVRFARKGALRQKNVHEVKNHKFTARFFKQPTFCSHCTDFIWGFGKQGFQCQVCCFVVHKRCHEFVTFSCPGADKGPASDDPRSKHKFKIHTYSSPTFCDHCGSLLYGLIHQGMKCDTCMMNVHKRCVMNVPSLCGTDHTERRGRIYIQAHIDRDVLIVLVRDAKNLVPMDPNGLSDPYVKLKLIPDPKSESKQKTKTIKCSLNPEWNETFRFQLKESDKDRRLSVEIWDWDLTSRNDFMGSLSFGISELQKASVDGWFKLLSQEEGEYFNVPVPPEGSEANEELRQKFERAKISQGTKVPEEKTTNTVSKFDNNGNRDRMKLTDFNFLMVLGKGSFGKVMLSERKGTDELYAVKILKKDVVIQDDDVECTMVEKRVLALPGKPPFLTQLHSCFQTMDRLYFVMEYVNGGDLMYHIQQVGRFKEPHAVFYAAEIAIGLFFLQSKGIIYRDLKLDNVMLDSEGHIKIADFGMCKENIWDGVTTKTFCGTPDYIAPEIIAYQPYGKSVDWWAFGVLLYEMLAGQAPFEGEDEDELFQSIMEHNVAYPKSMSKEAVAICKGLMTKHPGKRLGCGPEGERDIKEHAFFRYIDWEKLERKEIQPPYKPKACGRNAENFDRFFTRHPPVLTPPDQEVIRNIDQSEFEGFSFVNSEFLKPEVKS
row,inhibition at 1.14 µM,SMILES
1,55%,"COc1cc(-c2cc(C(=O)N3CCNCC3)c3c(/C=C/c4ccccc4)n[nH]c3n2)ccc1O [Example 9, [6-(4-Hydroxy-3-methoxy-phenyl)-3-((E)-styryl)-1H-pyrazolo[3,4-b]pyridin-4-yl]-piperazin-1-yl-methanone]"
2,96%,"O=C(c1cc(-c2ccc(O)cc2)nc2[nH]nc(/C=C/c3cccc(F)c3)c12)N1CCNCC1 [Example 71, [3-[(E)-2-(3-Fluoro-phenyl)-vinyl]-6-(4-hydroxy-phenyl)-1H-pyrazolo[3,4-b]pyridin-4-yl]-piperazin-1-yl-methanone]"
3,94%,"O=C(c1cc(-c2ccc(O)cc2)nc2[nH]nc(/C=C/c3cccc(N4CCCC4)c3)c12)N1CCNCC1 [Example 28, {6-(4-Hydroxy-phenyl)-3-[(E)-2-(3-pyrrolidin-1-yl-phenyl)-vinyl]-1H-pyrazolo[3,4-b]pyridin-4-yl}-piperazin-1-yl-methanone]"
4,96%,"O=C(c1cc(-c2ccc(O)cc2)nc2[nH]nc(/C=C/c3ccccc3)c12)N1CCNC[C@@H]1CO [Example 16, ((R)-2-Hydroxymethyl-piperazin-1-yl)-[6-(4-hydroxy-phenyl)-3-((E)-styryl)-1H-pyrazolo[3,4-b]pyridin-4-yl]-methanone]"
5,85%,"CC(C)C[C@H]1CN(C(=O)c2cc(-c3ccc(O)cc3)nc3[nH]nc(/C=C/c4ccccc4)c23)CCN1 [Example 5, [6-(4-Hydroxy-phenyl)-3-((E)-styryl)-1H-pyrazolo[3,4-b]pyridin-4-yl]-((S)-3-isobutyl-piperazin-1-yl)-methanone]"
6,98%,"COc1ccc(/C=C/c2n[nH]c3nc(-c4ccc(O)cc4)cc(C(=O)N4CCNCC4)c23)cc1C [Example 73, {6-(4-Hydroxy-phenyl)-3-[(E)-2-(4-methoxy-3-methyl-phenyl)-vinyl]-1H-pyrazolo[3,4-b]pyridin-4-yl}-piperazin-1-yl-methanone]"
7,96%,"Cc1cc(O)ccc1-c1cc(C(=O)N2CCNCC2)c2c(/C=C/c3ccccc3)n[nH]c2n1 [Example 7, [6-(4-Hydroxy-2-methyl-phenyl)-3-((E)-styryl)-1H-pyrazolo[3,4-b]pyridin-4-yl]-piperazin-1-yl-methanone]"
8,26%,"CCC(CC)C(=O)N1CCN(C(=O)c2cc(-c3ccc(O)cc3)nc3[nH]nc(/C=C/c4ccccc4)c23)CC1 [Example 80, 2-Ethyl-1-{4-[6-(4-hydroxy-phenyl)-3-((E)-styryl)-1H-pyra-zolo[3,4-b]pyri-dine-4-carbonyl]-piperazin-1-yl}-butan-1-one]"
9,98%,"Cc1ccc(/C=C/c2n[nH]c3nc(-c4ccc(O)cc4)cc(C(=O)N4CCNCC4)c23)cc1 [Example 21, [6-(4-Hydroxy-phenyl)-3-((E)-2-p-tolyl-vinyl)-1H-pyrazolo[3,4-b]-pyridin-4-yl]-piperazin-1-yl-methanone]"
10,94%,"CC(C)c1ccc(/C=C/c2n[nH]c3nc(-c4ccc(O)cc4)cc(C(=O)N4CCNCC4)c23)cc1 [Example 51, {6-(4-Hydroxy-phenyl)-3-[(E)-2-(4-isopropyl-phenyl)-vinyl]-1H-pyrazolo[3,4-b]pyridin-4-yl}-piperazin-1-yl-methanone]"
11,79%,"CCCC[C@@H]1CNCCN1C(=O)c1cc(-c2ccc(O)cc2)nc2[nH]nc(/C=C/c3ccccc3)c12 [Example 77, ((R)-2-Butyl-piperazin-1-yl)-[6-(4-hydroxy-phenyl)-3-((E)-styryl)-1H-pyra-zolo[3,4-b]-pyridin-4-yl]-methanone]"
12,100%,"CS(=O)(=O)c1cccc(/C=C/c2n[nH]c3nc(-c4ccc(O)cc4)cc(C(=O)N4CCNCC4)c23)c1 [Example 22, {6-(4-hydroxy-phenyl)-3-[(E)-2-(3-methanesulfonyl-phenyl)-vinyl]-1H-pyrazolo[3,4-b]-pyridin-4-yl}-piperazin-1-yl-methanone]"
13,99%,"Cc1cc(C)cc(/C=C/c2n[nH]c3nc(-c4ccc(O)cc4)cc(C(=O)N4CCNCC4)c23)c1 [Example 40, [3-[(E)-2-(3,5-Dimethylphenyl)-vinyl]-6-(4-hydroxy-phenyl)-1H-pyrazolo[3,4-b]pyridin-4-yl]-piperazin-1-yl-methanone]"
14,94%,"CC(C)(CO)C(=O)N1CCN(C(=O)c2cc(-c3ccc(O)cc3)nc3[nH]nc(/C=C/c4ccccc4)c23)CC1 [Example 87, 3-Hydroxy-1-{4-[6-(4-hydroxy-phenyl)-3-((E)-styryl)-1H-pyra-zolo[3,4-b]pyri-dine-4-carbonyl]-piperazin-1-yl}-2,2-dimethyl-propan-1-one]"

# Source: patent EP2567959B1, “6-(4-HYDROXY-PHENYL)-3-STYRYL-1H-PYRAZOLO[3,4-B]PYRIDINE-4-CARBOXYLIC ACID AMIDE DERIVATIVES AS KINASE INHIBITORS” (SANOFI, priority 2011, dated 2013)
